Patent publication US8574563B2 (Bristol-Myers Squibb Company, priority 2006, dated 2013)

These compounds were tested on HCV 1b-377-neo replicon cells (assay: HCV replicon assay, HCV 1b-377-neo replicon cells (1b FRET)). Details: Hepatitis C virus, HCV 1b-377-neo replicon cells; HCV 1b genotype; read-out: EC50 range against HCV 1b (Table 2, Range).
Type: cell-based, Hepatitis C virus genotype 1b
Method in brief: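 Compounds were tested in genotype 1b subgenomic replicon cells carrying a neomycin marker, alongside a matched replicon line with an NS5A Y2065H substitution that confers resistance to a reference NS5A inhibitor.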

`COC(=O)N[C@@H](C(=O)N1CCC[C@H]1c1ncc(-c2ccc(-c3ccc(-c4cnc([C@@H]5CCCN5C(=O)Cc5cn(C)cn5)[nH]4)cc3)cc2)[nH]1)c1ccccc1` [Example 62, methyl ((1R)-2-((2S)-2-(5-(4′-(2-((2S)-1-((1-methyl-1H-imidazol-4-yl)acetyl)-2-pyrrolidinyl)-1H-imidazol-5-yl)-4-biphenylyl)-1H-imidazol-2-yl)-1-pyrrolidinyl)-2-oxo-1-phenylethyl)carbamate] and `COC(=O)N[C@@H](C(=O)N1CCC[C@H]1c1ncc(-c2ccc(-c3ccc(-c4cnc([C@@H]5CCCN5C(=O)[C@H]5CCCC[C@H]5NC(=O)OC)[nH]4)cc3)cc2)[nH]1)c1ccccc1` [cj-95, methyl ((1R)-2-((2S)-2-(5-(4′-(2-((2S)-1-(((1S,2R)-2-((methoxycarbonyl)amino)cyclohexyl)carbonyl)-2-pyrrolidinyl)-1H-imidazol-5-yl)-4-biphenylyl)-1H-imidazol-2-yl)-1-pyrrolidinyl)-2-oxo-1-phenylethyl)carbamate] fall in the same range of EC50: 1 to 999 pM for the first, 1 to 999 pM for the second.

`CCN(CC)[C@@H](C(=O)N1CCC[C@H]1c1ncc(-c2ccc(-c3ccc(-c4cnc([C@@H]5CCCN5C(=O)[C@@H](NC(=O)OC)C(C)(C)C)[nH]4)cc3)cc2)[nH]1)c1ccccc1` [Example M59, methyl ((1S)-1-(((2S)-2-(5-(4′-(2-((2S)-1-((2R)-2-(diethylamino)-2-phenylacetyl)-2-pyrrolidinyl)-1H-imidazol-5-yl)-4-biphenylyl)-1H-imidazol-2-yl)-1-pyrrolidinyl)carbonyl)-2,2-dimethylpropyl)carbamate] and `CCN(CC)[C@@H](C(=O)N1CCC[C@H]1c1ncc(-c2ccc(-c3ccc(-c4cnc([C@@H]5CCCN5C(=O)c5cccnc5)[nH]4)cc3)cc2)[nH]1)c1ccccc1` [Example M38, (1R)-N,N-diethyl-2-oxo-1-phenyl-2-((2S)-2-(5-(4′-(2-((2S)-1-(3-pyridinylcarbonyl)-2-pyrrolidinyl)-1H-imidazol-5-yl)-4-biphenylyl)-1H-imidazol-2-yl)-1-pyrrolidinyl)ethanamine] fall in the same range of EC50: 1000 to 99000 pM for the first, 1000 to 99000 pM for the second.

First: COC(=O)N[C@@H](C)C(=O)N1CCC[C@H]1c1ncc(-c2ccc(-c3ccc(-c4cnc([C@@H]5CCCN5C(=O)[C@@H](NC(=O)OC)C5CC5)[nH]4)cc3)cc2)[nH]1 [Example M93, methyl ((1S)-1-cyclopropyl-2-((2S)-2-(5-(4′-(2-((2S)-1-(N-(methoxycarbonyl)-L-alanyl)-2-pyrrolidinyl)-1H-imidazol-5-yl)-4-biphenylyl)-1H-imidazol-2-yl)-1-pyrrolidinyl)-2-oxoethyl)carbamate]
Second: COC(=O)N[C@@H](C)C(=O)N1CCC[C@H]1c1ncc(-c2ccc(-c3ccc(-c4cnc([C@@H]5CCCN5C(=O)[C@H](Cc5cn(C)cn5)NC(=O)OC)[nH]4)cc3)cc2)[nH]1 [cj-41, methyl ((1S)-2-((2S)-2-(5-(4′-(2-((2S)-1-(N-(methoxycarbonyl)-L-alanyl)-2-pyrrolidinyl)-1H-imidazol-5-yl)-4-biphenylyl)-1H-imidazol-2-yl)-1-pyrrolidinyl)-1-((1-methyl-1H-imidazol-4-yl)methyl)-2-oxoethyl)carbamate]
The EC50 of the first is higher: 1000 to 99000 pM for the first, 1 to 999 pM for the second.

First: COCC(=O)N[C@H](C(=O)N1CCC[C@H]1c1nc(-c2ccc(-c3ccc(-c4c[nH]c([C@@H]5CCCN5C(=O)[C@@H](NC(=O)COC)C(C)C)n4)cc3)cc2)c[nH]1)C(C)C [Example F62, 2-methoxy-N-((1S)-1-(((2S)-2-(4-(4′-(2-((2S)-1-((2S)-2-((methoxyacetyl)amino)-3-methylbutanoyl)-2-pyrrolidinyl)-1H-imidazol-4-yl)-4-biphenylyl)-1H-imidazol-2-yl)-1-pyrrolidinyl)carbonyl)-2-methylpropyl)acetamide]
Second: COC(=O)N[C@H](C(=O)N1CCC[C@H]1c1ncc(-c2ccc(-c3ccc(-c4[nH]c([C@@H]5CCCN5C(=O)[C@@H](NC(=O)OC)C(C)C)nc4CC4OCCCO4)cc3)cc2)[nH]1)C(C)C [Example J14, methyl ((1S)-1-(((2S)-2-(4-(1,3-dioxan-2-ylmethyl)-5-(4′-(2-((2S)-1-((2S)-2-((methoxycarbonyl)amino)-3-methylbutanoyl)-2-pyrrolidinyl)-1H-imidazol-4-yl)-4-biphenylyl)-1H-imidazol-2-yl)-1-pyrrolidinyl)carbonyl)-2-methylpropyl)carbamate]
The EC50 of the first is higher: 1000 to 99000 pM for the first, 1 to 999 pM for the second. The second is the more potent here.

Compared with `COC(=O)N[C@H](Cc1ccccc1)C(=O)N1CCC[C@H]1c1ncc(-c2ccc(-c3ccc(-c4cnc([C@@H]5CCCN5C(=O)[C@@H](Cc5ccccc5)NC(=O)OC)[nH]4)cc3)cc2)[nH]1` [cj-145, methyl ((1R)-1-benzyl-2-((2S)-2-(5-(4′-(2-((2S)-1-((2R)-2-((methoxycarbonyl)amino)-3-phenylpropanoyl)-2-pyrrolidinyl)-1H-imidazol-5-yl)-4-biphenylyl)-1H-imidazol-2-yl)-1-pyrrolidinyl)-2-oxoethyl)carbamate], `COC(=O)N[C@@H](Cc1ccc(OCc2ccccc2)cc1)C(=O)N1CCC[C@H]1c1ncc(-c2ccc(-c3ccc(-c4cnc([C@@H]5CCCN5C(=O)[C@@H](NC(=O)OC)[C@@H](C)OC)[nH]4)cc3)cc2)[nH]1` [cj-105, methyl ((1S,2R)-1-(((2S)-2-(5-(4′-(2-((2S)-1-(O-benzyl-N-(methoxycarbonyl)-L-tyrosyl)-2-pyrrolidinyl)-1H-imidazol-5-yl)-4-biphenylyl)-1H-imidazol-2-yl)-1-pyrrolidinyl)carbonyl)-2-methoxypropyl)carbamate] is lower in EC50: 1000 to 99000 pM for the first, 1 to 999 pM for the second. The second is the more potent here.

Compared with `COC(=O)N[C@@H](C(=O)N[C@@H](C)c1ncc(-c2ccc(-c3ccc(-c4cnc([C@@H]5CCCN5C(=O)[C@H](NC(=O)OC)c5ccccc5)[nH]4)nn3)cc2)[nH]1)c1ccccc1` [Example 152j-14, methyl ((1R)-2-((2S)-2-(5-(6-(4-(2-((1S)-1-(((2R)-2-((methoxycarbonyl)amino)-2-phenylacetyl)amino)ethyl)-1H-imidazol-5-yl)phenyl)-3-pyridazinyl)-1H-imidazol-2-yl)-1-pyrrolidinyl)-2-oxo-1-phenylethyl)carbamate], `COC(=O)N[C@@H](C(=O)N[C@@H](C)c1ncc(-c2cnc(-c3ccc(-c4cnc([C@@H]5CCCN5C(=O)[C@H](NC(=O)OC)c5ccccc5)[nH]4)cc3)nc2)[nH]1)c1ccccc1` [Example 152j-17, methyl ((1R)-2-((2S)-2-(5-(4-(5-(2-((1S)-1-(((2R)-2-((methoxycarbonyl)amino)-2-phenylacetyl)amino)ethyl)-1H-imidazol-5-yl)-2-pyrimidinyl)phenyl)-1H-imidazol-2-yl)-1-pyrrolidinyl)-2-oxo-1-phenylethyl)carbamate] is lower in EC50: 1000 to 99000 pM for the first, 1 to 999 pM for the second. The second is the more potent here.

`CN(C)[C@@H](C(=O)N1CCC[C@H]1c1ncc(-c2ccc(-c3ccc(-c4cnc([C@@H]5CCCN5C(=O)N5CCOCC5)[nH]4)cc3)cc2)[nH]1)c1ccccc1` [Example 93, (1R)-N,N-dimethyl-2-((2S)-2-(5-(4′-(2-((2S)-1-(4-morpholinylcarbonyl)-2-pyrrolidinyl)-1H-imidazol-5-yl)-4-biphenylyl)-1H-imidazol-2-yl)-1-pyrrolidinyl)-2-oxo-1-phenylethanamine] and `COC(=O)N[C@@H](C(=O)N1CCC[C@H]1c1ncc(-c2ccc(-c3ccc(-c4cnc([C@@H]5CCCN5C(=O)C(c5ccccc5C(F)(F)F)N(C)C)[nH]4)cc3)cc2)[nH]1)c1ccccc1` (stereo partly drawn) [Example 84-55, methyl ((1R)-2-((2S)-2-(5-(4′-(2-((2S)-1-((dimethylamino)(2-(trifluoromethyl)phenyl)acetyl)-2-pyrrolidinyl)-1H-imidazol-5-yl)-4-biphenylyl)-1H-imidazol-2-yl)-1-pyrrolidinyl)-2-oxo-1-phenylethyl)carbamate] fall in the same range of EC50: 1 to 999 pM for the first, 1 to 999 pM for the second.

`COCC[C@H](NC(=O)OC)C(=O)N1CCC[C@H]1c1ncc(-c2ccc(-c3ccc(-c4cnc([C@@H]5CCCN5C(=O)[C@H](CCOC)NC(=O)OC)[nH]4)cc3)cc2)[nH]1` [cj-156, methyl ((1S)-3-methoxy-1-(((2S)-2-(5-(4′-(2-((2S)-1-(N-(methoxycarbonyl)-O-methyl-L-homoseryl)-2-pyrrolidinyl)-1H-imidazol-5-yl)-4-biphenylyl)-1H-imidazol-2-yl)-1-pyrrolidinyl)carbonyl)propyl)carbamate] and `COC(=O)N[C@@H](C(=O)N1CCC[C@H]1c1ncc(-c2ccc(-c3ncc(-c4cnc([C@@H]5CCCN5C(=O)[C@H](NC(=O)OC)c5ccccc5)[nH]4)cn3)cc2)[nH]1)c1ccccc1` [Example 152j-2, methyl ((1R)-2-((2S)-2-(5-(2-(4-(2-((2S)-1-((2R)-2-((methoxycarbonyl)amino)-2-phenylacetyl)-2-pyrrolidinyl)-1H-imidazol-5-yl)phenyl)-5-pyrimidinyl)-1H-imidazol-2-yl)-1-pyrrolidinyl)-2-oxo-1-phenylethyl)carbamate] fall in the same range of EC50: 1 to 999 pM for the first, 1 to 999 pM for the second.

`COc1ccccc1OCC(=O)N1CCC[C@H]1c1ncc(-c2ccc(-c3ccc(-c4cnc([C@@H]5CCCN5C(=O)[C@@H](c5ccccc5)N5CCCCC5)[nH]4)cc3)cc2)[nH]1` [Example 107-8, 1-((1R)-2-((2S)-2-(5-(4′-(2-((2S)-1-((2-methoxyphenoxy)acetyl)-2-pyrrolidinyl)-1H-imidazol-5-yl)-4-biphenylyl)-1H-imidazol-2-yl)-1-pyrrolidinyl)-2-oxo-1-phenylethyl) piperidine] and `COC(=O)N[C@H](C(=O)N1[C@@H]2C[C@@H]2C[C@H]1c1ncc(-c2ccc(-c3ccc(-c4cnc([C@@H]5C[C@H]6C[C@H]6N5C(C)=O)[nH]4)cc3)cc2)[nH]1)C(C)C` [Example M138, methyl ((1S)-1-(((1R,3S,5R)-3-(4-(4′-(2-((1R,3S,5R)-2-acetyl-2-azabicyclo[3.1.0]hex-3-yl)-1H-imidazol-4-yl)-4-biphenylyl)-1H-imidazol-2-yl)-2-azabicyclo[3.1.0]hex-2-yl)carbonyl)-2-methylpropyl)carbamate] fall in the same range of EC50: 1 to 999 pM for the first, 1 to 999 pM for the second.
